Assay results taken from patent US12060573B2, “Stabilized amorphous calcium carbonate as a supplement for cell culture media” (AMORPHICAL LTD., priority 2016, dated 2024).
“And” between values parts separate entries of the source, which are not always exact repeats. Identical values can stand only once. “Also recorded” adds a separate entry of the source.

Legend:
skeletal muscle cultures = assay: Myotube formation and contractility in healthy skeletal muscle cultures; type: cell-based, rat; details: added 1 mM, final Ca2+ 2 mM
Protocol: Stationary skeletal muscle cultures were prepared from healthy 1 day new born rat (Sprague Dawley, Harlan, Israel). The muscle tissue was dissected from posterior legs and was thoroughly minced. Digestion was performed with Trypsin-EDTA while gentle trituration. After 30 min the supernatant, containing dissociated cells, was collected and a fresh Trypsin-EDTA was added. This procedure was repeated two more times. Then, all supernatants were pooled, centrifuged, and the cell pellet was re-suspended in Proliferation Medium. Cells were seeded in a Gelatin coated 12 wells culture plates, 1×10^5 cells/well containing 1 mL of Proliferation Medium. Two days later, the medium was changed to Fusion Medium, which was then changed twice a week. The cultures were monitored by daily phase contrast microscopic observations from 24 hours after setting the cultures and onward.
Stock solution of 1% porcine gelatin in water, was sterilized by autoclave. Once cooled, 500 μl of the solution were added to each well of the 12-wells culture plat. After incubation for 20 min at room temperature, the excess solution was removed, and the cells were seeded.
For the proliferation stage, cells were cultured in: DMEM/F12 (containing 1 mM Ca^2+)+10% FBS, 25 μg/mL Gentamycin, and 2 mM L-Glutamine. […]

mice embryos = assay: In-vitro embryo development in Quinn's Advantage cleavage media; type: cell-based
Protocol: CBA male mice were bred with BL C57 female mice. The mice were kept on a 12 hours photoperiod schedule with unlimited water and food supply. About 6 to 8 weeks after receiving offspring, each female mouse was injected IP with 5IU of pregnant mare serum gonadotropin (PMSG).
After 48 hours each female mouse was injected IP with 5IU human chorionic gonadotropin (hCG). Male mice proven to be fertile were then put together with the superovulated females. The next morning the female mice were examined for the presence of copulatory plugs. Females that had copulatory plugs were euthanized after 24 hours (approximately 36 hours post-coitus) and embryos at 2 cell stage were retrieved from the oviducts as following: the oviducts were dissected in Quinn's Advantage cleavage media (SAGE, Origio, Denmark) and the embryos were transferred to 20 μL drops with Quinn's Advantage cleavage media (SAGE, Origio, Denmark) overlaid with mineral oil and cultured at 37.0° C. under 5% CO2 and atmospheric oxygen. The collected embryos continued to grow, i.e. in-vitro culture (IVC), until blastocyst/hatching stage. To test the effect of amorphous calcium carbonate, the Quinn's Advantage cleavage media (“cleavage media” hereinafter) was supplemented with different additives, i.e. amorphous calcium carbonate stabilized by polyphosphate (ACC-PP), crystalline calcium carbonate (CCC), polyphosphate (PP), phosphoserine (PS) or sodium carbonate ([…]). All supplements were added as a freshly prepared suspension; the preparation of the ACC supplements were performed under aseptic conditions. Untreated cleavage media (without addition of any additive) was used as a control (identified as Cont Q). The embryos were evaluated every day by microscope observation for a detection of the following stages: 2 cells, compactions stage, blastocysts formation and hatching stage. The fraction (in percent) of the embryos reached each stage was calculated (the number of 2 cells embryos was set as 100%).

[1] = system: spinal cord-dorsal root ganglia (SC-DRG) slices; assay: Nerve fiber sprouting from SC-DRG co-cultures; type: cell-based, rat; details: Ca2+ 2 mM; 4 days of cultivation; portion of 6 explants
Protocol: Neural and Vascular Reconstruction Gel ([…] Labs proprietary) is composed of two main components: high molecular hyaluronic acid (HA, 3×10^6 Da, BTG, Israel) and laminin (Sigma). […] The gel has the texture of a viscous liquid, it adheres easily and successfully the embedded cells or explants to the plastic or glass substratum, and enabled nerve fiber outgrowth in a 3D pattern. All the experiments were carried out and authorized by the local ethics committee recognized by the Israeli authorities for animal experimentation. Stationary organotypic cultures of dorsal root ganglia (DRG) and spinal cord (SC) as well as cultures of dissociated brain cells were prepared from rat fetuses (15 days of gestation, Lewis inbred, Harlan, Israel). Immediately after dissection, the isolated tissues were cut with a […] tissue chopper into small slices (of 400 μm thickness). In these studies, two tissue culture strategies were used. […] In the second method, the tissue slices were further dissociated with a trypsin-EDTA solution for 30 min, and washed with a culture medium. Subsequently, the dissociated cells were added to a suspension of chitosan powder or gastrolith powder (micro carriers, MCs) and incubated in suspension at 37° C. for 4 days. […] The cultures were monitored by daily phase contrast microscopic observations starting from 24 hours after setting the cultures onward. […]

mdx cell line = details: final Ca2+ 2 mM
Protocol: Cells from the Mdx cell line were seeded in a Gelatin coated 12 wells culture plate, 3×10^4 cells/well containing 1 mL of Proliferation Medium. Two days later (˜66% confluence), the medium was changed to Fusion Medium which was changed twice a week. The various calcium preparations were separately added to the Fusion Medium according to the treatment described in Table 3. Cultures were enriched with the various calcium preparations, at Ca^2+ concentration of 1 mM. Since the medium already contained 1 mM of calcium ions, then the final concentration of Ca2+ was of 2 mM
The effects of the tested calcium preparations on cell proliferation, fusion to form myotubes and muscle contraction were monitored by daily phase contrast microscopic observation.

MBA-13 cells = assay: Differentiation of MBA13 stem cells to osteoblasts (Alizarin red, alkaline phosphatase staining); type: cell-based; details: additional 1 mM calcium (total 2.488 mM); 10 days; gelatin coating
Protocol: Two days following thawing, MBA-13 cells (received from Prof. Dov Zipori, Weizmann Institute of Science) were re-suspended in recombinant trypsin solution and seeded on a 96 wells plate, (Day “0”) in a concentration of 1×10^4 cells/well using MSC Nutristem® XF basal medium (Biological Industries, cat #05-200-1A) supplemented with Mesenchymal stem cells (MSC) supplement mix medium (Biological Industries cat #05-201-06) in a ratio of 50 ml:300 μl. […] Row G in the plate was treated with MSCgo medium (total 1.488 mM calcium). Row H of the plate was treated with MSC NutriStem® XF nutrient basal medium+ supplement mix (total 1.488 mM calcium). On day 4, medium was exchanged with fresh preparations of ACC. […] Once the cells were fixated, two types of staining reagents were used to stain extracellular calcium or bone deposition in order to estimate osteoblasts functionality: (i) Alizarin red (Sigma A55333) and (ii) Alkaline Phosphatase (DAKO BCIP/NBT substrate system […]) as following: Alizarin red staining procedure-pH was adjusted to 4.2. Cells were washed twice with PBS and fixed with cold methanol for 5 minutes and then washed again with PBS. […] Then, washed 3 times with PBS and following removal of PBS remnants, 3 drops of BCIP/NBT kit solution was used to cover the cells including one empty well without any cells as control to quantify the assay. […]

[2] = Example 10, 1.7 mM, embryos of each of 4 mice grown separately, one line per mouse
[3] = Example 14, pooled embryos, 1.7 mM
[4] = Example 15, 1.7 mM, pooled embryos of mice 3-6
[5] = Example 15, 1.7 mM, sibling embryos (mouse 1: CCC; mouse 2: ACC-PP, NaCO3)
[6] = Example 11, 1.6 mM, pooled embryos of mice 3-7
[7] = Example 12, pooled embryos, 1.6 mM

Which “muscle fibers after 7 days” value (skeletal muscle cultures; 7 days) does the source give for `[Ca+2].[Cl-].[Cl-]` [CaCl2, calcium chloride] here?
The value was “fewer, thinner and shorter muscle fibers”.

What about the “time to formation of myotubes” value (skeletal muscle cultures; dry powder suspended in water) of the same compound?
Its value is “myotubes formation was observed later”.

And the “Blast/d3, number of embryos” value (mice embryos; Example 7 Test A, 1.7 mM)?
The value was 16.

And the “Blast/d3, portion of initial number of embryos” value (“Blast/d3, portion” below) (mice embryos; Example 7 Test A, 1.7 mM)?
The value was 64%.

What about the “Comp/d2, portion of initial number of embryos” value (“Comp/d2, portion” for short) (mice embryos; Example 7 Test A, 1.7 mM) of the same compound?
The value was 64%.

And the “comp/d2, number of embryos” value (mice embryos; Example 7 Test A, 1.7 mM)?
Its value is 16.

What about the “Blast/d3, number of embryos” value (mice embryos; Example 7 Test B, 1.7 mM) of the same compound?
The value was 20.

And the “Blast/d3, portion” value (mice embryos; Example 7 Test B, 1.7 mM)?
Its value is 74%.

And the “Comp/d2, portion” value (mice embryos; Example 7 Test B, 1.7 mM)?
The value was 70%.

What about the “Hatch/d4, number of embryos” value (mice embryos; Example 7 Test B, 1.7 mM) of the same compound?
The value was 11.

What about the “Hatch/d4, portion of initial number of embryos” value (mice embryos; Example 7 Test B, 1.7 mM) of the same compound?
The value was 40.7%.

And the “comp/d2, number of embryos” value (mice embryos; Example 7 Test B, 1.7 mM)?
The value was 20.

What about the “Blast/d3, number of embryos” value (mice embryos; Example 8, 1.7 mM) of the same compound?
The value was 8.

What about the “Blast/d3, portion” value (mice embryos; Example 8, 1.7 mM) of the same compound?
The value was 80%.

And the “Comp/d2, portion” value (mice embryos; Example 8, 1.7 mM)?
Its value is 30%.

And the “Hatch/d4, number of embryos” value (mice embryos; Example 8, 1.7 mM)?
The value was 3.

And the “Hatch/d4, portion of initial number of embryos” value (mice embryos; Example 8, 1.7 mM)?
The value was 30%.

What about the “comp/d2, number of embryos” value (mice embryos; Example 8, 1.7 mM) of the same compound?
Its value is 3.

And the “Blast/d3, number of embryos” value (mice embryos; Example 9, 1.7 mM)?
The value was 24.

And the “Blast/d3, portion” value (mice embryos; Example 9, 1.7 mM)?
Its value is 80%.

And the “Comp/d2, portion” value (mice embryos; Example 9, 1.7 mM)?
The value was 53.3%.

What about the “Hatch/d4, number of embryos” value (mice embryos; Example 9, 1.7 mM) of the same compound?
Its value is 13.

And the “Hatch/d4, portion of initial number of embryos” value (mice embryos; Example 9, 1.7 mM)?
Its value is 43.3%.

And the “comp/d2, number of embryos” value (mice embryos; Example 9, 1.7 mM)?
Its value is 16.

What about the “8Cell/d2, number of embryos” value (mice embryos; Example 10, 1.7 mM, embryos of each of 4 mice (5 months old) grown separately, one line per mouse) of the same compound?
The value was 0 (2×) and 4 and 2.

What about the “Blast/d3, number of embryos” value (mice embryos; [2]) of the same compound?
Its value is 2 and 5 and 12 and 1.

What about the “Blast/d3, portion” value (mice embryos; [2]) of the same compound?
The value was “(8.3) %; also recorded: (22.2) %; also recorded: (50) %; also recorded: (66.7) %”.

And the “Hatch/d4, number of embryos” value (mice embryos; [2])?
The value was 0 (2×) and 3 and 7.

And the “Hatch/d4, portion of initial number of embryos” value (mice embryos; [2])?
The value was “(0) %; also recorded: (30) %; also recorded: (41.2) %”.

What about the “comp/d2, number of embryos” value (mice embryos; [2]) of the same compound?
Its value is 3 and 6 and 10 and 1.

And the “effect on embryonic development (blastocysts and hatched blastocysts)” value (mice embryos; Example 14, 1.7 mM)?
Its value is “negative effect on embryonic development”.

And the “8 cell/d2, number of embryos” value (mice embryos; [3])?
The value was 6.

What about the “Blast/d3, number of embryos” value (mice embryos; [3]) of the same compound?
Its value is 10.

And the “Blast/d3, portion” value (mice embryos; [3])?
The value was 90.90%.

And the “Hatch/d4, number of embryos” value (mice embryos; [3])?
Its value is 4.

What about the “Hatch/d4, portion of initial number of embryos” value (mice embryos; [3]) of the same compound?
Its value is 36.36%.

What about the “comp/d2, number of embryos” value (mice embryos; [3]) of the same compound?
The value was 5.

What about the “Cultures with axonal regeneration (%)” value [1] of the same compound?
Its value is 50%.

What about the “muscle contractions first observed, day after seeding” value (mdx cell line) of the same compound?
Its value is at least 10 days.

What about the “Alizarin Red staining (calcium deposition)” value (MBA-13 cells) of the same compound?
The value was “weak signal”.

For `O=C([O-])[O-].[Na+].[Na+]` [NaCO3, sodium carbonate], which “embryonic development compared to control or ACC-PP” value (mice embryos; Example 15, 1.7 mM) is on record?
Its value is “very poor embryonic development”.

What about the “8 cell/d2, number of embryos” value (mice embryos; [4]) of the same compound?
The value was 2.

And the “Blast/d3, number of embryos” value (mice embryos; [4])?
Its value is 0.

What about the “Blast/d4, number of embryos” value (mice embryos; [4]) of the same compound?
Its value is 0.

And the “Hatch/d4, number of embryos” value (mice embryos; [4])?
The value was 0.

And the “Hatch/d4, portion of total number of embryos” value (mice embryos; [4])?
The value was “(0) %”.

What about the “comp/d2, number of embryos” value (mice embryos; [4]) of the same compound?
The value was 7.

What about the “degenerative, number of embryos” value (mice embryos; [4]) of the same compound?
The value was 1.

What about the “early Blast/d3, number of embryos” value (mice embryos; [4]) of the same compound?
Its value is 0.

What about the “8 cell/d2, number of embryos” value (mice embryos; [5]) of the same compound?
The value was 6.

What about the “Blast/d3, number of embryos” value (mice embryos; [5]) of the same compound?
The value was 2.

And the “Blast/d4, number of embryos” value (mice embryos; [5])?
Its value is 0.

What about the “Hatch/d4, number of embryos” value (mice embryos; [5]) of the same compound?
Its value is 2.

And the “Hatch/d4, portion of total number of embryos” value (mice embryos; [5])?
Its value is “(12.5) %”.

What about the “comp/d2, number of embryos” value (mice embryos; [5]) of the same compound?
The value was 8.

And the “degenerative, number of embryos” value (mice embryos; [5])?
The value was 2.

And the “early Blast/d3, number of embryos” value (mice embryos; [5])?
The value was 14.

polyphosphate [PP] was tested. Which “8 cell/d2, number of embryos” value (mice embryos; [6]) did it give?
The value was 9.

What about the “Blast/d3, number of embryos” value (mice embryos; [6]) of the same compound?
The value was 20.

What about the “Blast/d3, portion” value (mice embryos; [6]) of the same compound?
Its value is 54.1%.

And the “Hatch/d4, number of embryos” value (mice embryos; [6])?
Its value is 17.

What about the “Hatch/d4, portion of initial number of embryos” value (mice embryos; [6]) of the same compound?
Its value is 45.9%.

And the “comp/d2, number of embryos” value (mice embryos; [6])?
The value was 20.

What about the “8 cell/d2, number of embryos” value (mice embryos; [7]) of the same compound?
Its value is 6.

What about the “Blast/d3, number of embryos” value (mice embryos; [7]) of the same compound?
The value was 34.

What about the “Blast/d3, portion” value (mice embryos; [7]) of the same compound?
The value was 94.44%.

What about the “Hatch/d4, number of embryos” value (mice embryos; [7]) of the same compound?
The value was 16.

What about the “Hatch/d4, portion of initial number of embryos” value (mice embryos; [7]) of the same compound?
The value was 44.44%.

And the “comp/d2, number of embryos” value (mice embryos; [7])?
The value was 30.
